In US20130079349A1 (JANSSEN PHARMACEUTICA NV, priority 2010, published 2013):

Experiments:
[1] = target: BACE1 (Homo sapiens, UniProt P56817); experiment: Biochemical FRET based assay; details: recombinant BACE1 1 μg/ml, 120 minutes at room temperature, pH 5.0; read-out: Biochemical FRET based assay pIC50 (converted)
Excerpt: This assay is a Fluorescence Resonance Energy Transfer Assay (FRET) based assay. The substrate for this assay is an APP derived 13 amino acids peptide that contains the ‘Swedish’ Lys-Met/Asn-Leu mutation of the amyloid precursor protein (APP) beta-secretase cleavage site. This substrate also contains two fluorophores: (7-methoxycoumarin-4-yl) acetic acid (Mca) is a fluorescent donor with excitation wavelength at 320 nm and emission at 405 nm and 2,4-Dinitrophenyl (Dnp) is a proprietary quencher acceptor. […] Upon cleavage by BACE1, the fluorophore Mca is separated from the quenching group Dnp, restoring the full fluorescence yield of the donor. The increase in fluorescence is linearly related to the rate of proteolysis.
Briefly in a 384-well format recombinant BACE1 protein in a final concentration of 1 μg/ml is incubated for 120 minutes at room temperature with 10 μm substrate in incubation buffer (40 mM Citrate buffer pH 5.0, 0.04% PEG, 4% DMSO) in the absence or presence of compound. Next the amount of proteolysis is directly measured by fluorescence measurement at T=0 and T=120 (excitation at 320 nm and emission at 405 nm). Results are expressed in RFU (relative fluorescence units), as difference between T120 and T0.

[2] = test system: Abeta total; experiment: Cellular αLisa assay in SKNBE2 cells, Abeta total; format: cell-based; details: human neuroblastoma SKNBE2 expressing hAPP695, incubated for 18 hours; for IC50: Homo sapiens, SKNBE2, 18 h, read-out: Cellular αlisa assay in SKNBE2 cells Aβtotal pIC50 (converted)
Protocol: (§1) In two αLisa assays the levels of Abeta total and Abeta 1-42 produced and secreted into the medium of human neuroblastoma SKNBE2 cells are quantified. The assay is based on the human neuroblastoma SKNBE2 expressing the wild type Amyloid Precursor Protein (hAPP695). The compounds are diluted and added to these cells, incubated for 18 hours and then measurements of Abeta 1-42 and Abeta total are taken. Abeta total and Abeta 1-42 are measured by sandwich αLisa. αLisa is a sandwich assay using biotinylated antibody AbN/25 attached to streptavidin coated beads and antibody Ab4G8 or cAb42/26 conjugated acceptor beads for the detection of Abeta total and Abeta 1-42 respectively. In the presence of Abeta total or Abeta 1-42, the beads come into close proximity. The excitation of the donor beads provokes the release of singlet oxygen molecules that trigger a cascade of energy transfer in the acceptor beads, resulting in light emission. Light emission is measured after 1 hour incubation (excitation at […] and emission at 615 nm).
(§2) A best-fit curve is fitted by a minimum sum of squares method to the plot of %Controlmin versus compound concentration.

[3] = test system: Abeta 1-42; experiment: Cellular αLisa assay in SKNBE2 cells, Abeta 1-42; format: cell-based; details: human neuroblastoma SKNBE2 expressing hAPP695, incubated for 18 hours; for IC50: Homo sapiens, SKNBE2, 18 h, read-out: Cellular αlisa assay in SKNBE2 cells Aβ42 pIC50 (converted)
Protocol: as §1, §2

Chain of BACE1 (P56817 46-501): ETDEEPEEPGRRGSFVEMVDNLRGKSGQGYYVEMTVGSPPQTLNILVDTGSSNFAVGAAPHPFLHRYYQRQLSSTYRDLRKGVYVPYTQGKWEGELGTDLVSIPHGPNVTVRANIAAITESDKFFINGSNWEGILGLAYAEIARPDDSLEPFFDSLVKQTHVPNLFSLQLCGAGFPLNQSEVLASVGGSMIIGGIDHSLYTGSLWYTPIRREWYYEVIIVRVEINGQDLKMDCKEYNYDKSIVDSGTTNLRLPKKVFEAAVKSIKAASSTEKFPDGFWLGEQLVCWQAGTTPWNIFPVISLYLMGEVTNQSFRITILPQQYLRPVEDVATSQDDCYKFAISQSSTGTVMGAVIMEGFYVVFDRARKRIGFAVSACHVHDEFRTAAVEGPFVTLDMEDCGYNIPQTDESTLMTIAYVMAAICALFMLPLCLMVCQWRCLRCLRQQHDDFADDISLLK

| SMILES | IC50 [1] [µM] | melting point [°C] | IC50 [2] [µM] | IC50 [3] [µM] | Cellular αlisa assay in SKNBE2 cells Aβtotal pIC50 [2] | Cellular αlisa assay in SKNBE2 cells Aβ42 pIC50 [3] |
| --- | --- | --- | --- | --- | --- | --- |
| CN1CC(N)=NC(C)(c2cccc(-c3cncnc3)c2)C1=O (racemic) [Compound 1, rac-5-amino-1,3-dimethyl-3-(3-pyrimidin-5-yl-phenyl)-3,6-dihydro-1H-pyrazin-2-one] | 20.4 | 223.4 | 3.89 | 4.47 |  |  |
| COc1cncc(-c2cccc(C3(C)N=C(N)CN(C)C3=O)c2)c1 (racemic) [Compound 2, rac-5-amino-3-[3-(5-methoxy-pyridin-3-yl)-phenyl]-1,3-dimethyl-3,6-dihydro-1H-pyrazin-2-one] | 10.5 |  | 1.51 | 1.66 |  |  |
| CN1CC(N)=NC(C)(c2cccc(NC(=O)c3ccc(Cl)cn3)c2)C1=O (racemic) [Compound 3, rac-5-chloro-pyridine-2-carboxylic acid [3-(6-amino-2,4-dimethyl-3-oxo-2,3,4,5-tetrahydro-pyrazin-2-yl)-phenyl]-amide] |  |  | 0.0275 | 0.0646 |  |  |
| CN1CC(N)=NC(C)(c2cccc(NC(=O)c3ccc(Cl)cn3)c2)C1=O (single isomer, unassigned) [Compound 4, (S*)-5-chloro-pyridine-2-carboxylic acid [3-(6-amino-2,4-dimethyl-3-oxo-2,3,4,5-tetrahydro-pyrazin-2-yl)-phenyl]-amide] |  |  |  |  | <5 | <5 |

Continued, values first:

| IC50 [1] [µM] | melting point [°C] | IC50 [2] [µM] | IC50 [3] [µM] | Cellular αlisa assay in SKNBE2 cells Aβtotal pIC50 [2] | Cellular αlisa assay in SKNBE2 cells Aβ42 pIC50 [3] | SMILES |
| --- | --- | --- | --- | --- | --- | --- |
| 7.08 |  | 1.15 | 1.26 |  |  | Cc1cnc(C(=O)Nc2cccc(C3(C)N=C(N)CN(C)C3=O)c2)cn1 (racemic) [Compound 6, rac-5-methyl-pyrazine-2-carboxylic acid [3-(6-amino-2,4-dimethyl-3-oxo-2,3,4,5-tetrahydro-pyrazin-2-yl)-phenyl]-amide] |
| > 30.2 | 81.8 | 9.12 | > 10 |  |  | CCN1CC(N)=NC(C)(c2cc(-c3cncc(OC)c3)c(F)cc2F)C1=O (racemic) [Compound 9, rac-5-amino-3-[2,4-difluoro-5-(5-methoxy-pyridin-3-yl)-phenyl]-1-ethyl-3-methyl-3,6-dihydro-1H-pyrazin-2-one] |
|  |  |  |  | 7.43 | 7.44 | CN1CC(N)=NC(C)(c2cccc(NC(=O)c3ccc(Cl)cn3)c2)C1=O (single isomer, unassigned) [Compound 5, (R*)-5-chloro-pyridine-2-carboxylic acid [3-(6-amino-2,4-dimethyl-3-oxo-2,3,4,5-tetrahydro-pyrazin-2-yl)-phenyl]-amide] |
